In patent publication US20250144067A1, “PERSONALIZED STARVATION THERAPY FOR CANCER” (Faeth Therapeutics, Inc., priority 2021, published 2025):
Where a name gives a salt, the structure may show the parent alone.

Legend:
[1] = tested on: NCI-H292 lung cancer cells; test: FDA drug screening, complete media vs cholesterol-free media without statin (TABLE 1); assay type: cell-based, human
[2] = tested on: NCI-H292 lung cancer cells; test: FDA drug screening, complete media vs cholesterol-free media with simvastatin (TABLE 2); assay type: cell-based, human; conditions: for Cholesterol-free media + simvastatin (0.04 μM) / Complete Media: NCI-H292 cells
[3] = NCI-H292 cells, cholesterol-free media without statin
[4] = complete vs cholesterol-free media, greater than 0 enhanced anti-cancer activity, about 0 neutral, below 0 antagonists
[5] = drug in cholesterol-free media with simvastatin 0.04 μM
[6] = complete media vs cholesterol-free media + simvastatin (0.04 μM), >0 enhanced anti-cancer activity, about 0 neutral, <0 antagonist
[7] = cholesterol-free media with simvastatin 0.04 μM, cell growth value in FDA drug screen
[8] = complete media, cell growth value in FDA drug screen
[9] = complete media minus cholesterol-free media + simvastatin, >0 enhanced anti-cancer activity, about 0 neutral, <0 antagonist
[10] = NCI-H292 cells, cholesterol-free media without statin, FDA drug library screen
[11] = NCI-H292 cells, complete media, FDA drug library screen
[12] = complete vs cholesterol-free media, >0 enhanced anti-cancer activity, about 0 neutral, <0 antagonist
[13] = FDA drug library screen, cholesterol-free media with simvastatin 0.04 μM
[14] = FDA drug library screen, complete media
[15] = Complete minus Cholesterol-free, greater than 0 enhanced anti-cancer activity, about 0 neutral, below 0 antagonist
[16] = NCI-H292 cells, FDA drug library screen, cholesterol-free media without statin
[17] = NCI-H292 cells, FDA drug library screen, complete media
[18] = Complete minus Cholesterol-free, greater than 0 enhanced anti-cancer activity, about 0 neutral, below 0 antagonists
[19] = NCI-H292 cells in cholesterol-free media without statin
[20] = NCI-H292 cells in complete media
[21] = Complete minus Cholesterol-free, >0 enhanced anti-cancer activity, about 0 neutral, <0 antagonist
[22] = FDA library drug in cholesterol-free media with simvastatin 0.04 μM
[23] = FDA library drug in complete media
[24] = Complete minus Cholesterol-free, […]
[25] = cholesterol-free media with simvastatin 0.04 μM, FDA drug library screen (TABLE 2)
[26] = complete media, FDA drug library screen (TABLE 2)

Work on `CCCCCCNC(=O)n1cc(F)c(=O)[nH]c1=O` [Carmofur] yielded a Cholesterol-free [1, 3] of 0.5487, a Complete ([1]; NCI-H292 cells, complete media) of 0.2009 and a Difference [1, 4] of −0.35. For the same molecule, the “Cholesterol-free media + simvastatin (0.04 μM)” value [2, 5] was 0.7692, the “Complete Media” value ([2]; drug in complete media) was 0.6005 and the Difference [2, 6] was −0.17.
Work on `CN1C[C@H](CNC(=O)OCc2ccccc2)C[C@@H]2c3cccc4c3c(cn4C)C[C@H]21` [Metergoline] yielded a Cholesterol-free [1, 3] of 1.165, a Complete ([1]; NCI-H292 cells, complete media) of 0.7326 and a Difference [1, 4] of −0.43. The “Cholesterol-free media + simvastatin (0.04 μM)” value [2, 7] was 0.7892, the “Complete Media” value [2, 8] was 0.8668 and the Difference [2, 9] was 0.08.
For `CS(=O)(=O)c1ccc([C@@H](O)[C@@H](CO)NC(=O)C(Cl)Cl)cc1` [Thiamphenicol], the Cholesterol-free [1, 10] was 0.8085, the Complete [1, 11] was 0.9105 and the Difference [1, 12] was 0.10. The “Cholesterol-free media + simvastatin (0.04 μM)” value [2, 13] was 0.911, the “Complete Media” value [2, 14] was 0.7958 and the Difference [2, 6] was −0.12.
For `COC(=O)C1=C(C)NC(C)=C(C(=O)OCCN2CCN(C(c3ccccc3)c3ccccc3)CC2)C1c1cccc([N+](=O)[O-])c1` (centres unmarked) [Manidipine (dihydrochloride)], the Difference [1, 15] was −0.08, the Cholesterol-free [1, 16] was 0.814 and the Complete [1, 17] was 0.7357. The “Cholesterol-free media + simvastatin (0.04 μM)” value [2, 7] was 1.023, the “Complete Media” value [2, 8] was 1.051 and the Difference [2, 9] was 0.03.
In the case of `Cc1cnc(Nc2ccc(OCCN3CCCC3)cc2)nc1Nc1cccc(S(=O)(=O)NC(C)(C)C)c1` [Fedratinib (hydrochloride hydrate)], the Difference [1, 15] was −0.13, the Cholesterol-free [1, 16] was 0.469 and the Complete [1, 17] was 0.341. The “Cholesterol-free media + simvastatin (0.04 μM)” value [2, 5] was 0.6402, the “Complete Media” value ([2]; drug in complete media) was 0.3774 and the Difference [2, 6] was −0.26.
In the case of `O=[N+]([O-])C(Br)(CO)CO` [Bronopol], the Difference [1, 18] was −0.52, the Cholesterol-free [1, 19] was 1.461 and the Complete [1, 20] was 0.9389. For the same molecule, the “Cholesterol-free media + simvastatin (0.04 μM)” value [2, 7] was 0.8221, the “Complete Media” value [2, 8] was 0.9082 and the Difference [2, 9] was 0.09.
Molecule `CCCC[C@H](C)C[C@H](O)/C=C/[C@H]1[C@H](O)CC(=O)[C@@H]1CCCC/C=C/C(=O)O` [Limaprost] has a Cholesterol-free [1, 3] of 1.4, a Complete ([1]; NCI-H292 cells, complete media) of 0.949 and a Difference [1, 4] of −0.45. The “Cholesterol-free media + simvastatin (0.04 μM)” value [2, 5] was 1.214, the “Complete Media” value ([2]; drug in complete media) was 0.9724 and the Difference [2, 6] was −0.24.
In the case of `COc1ccc(C(=O)NCc2ccc(OCCN(C)C)cc2)cc1OC` [Itopride (hydrochloride)], the Difference [1, 21] was −0.04, the Cholesterol-free [1, 10] was 1.141 and the Complete [1, 11] was 1.104. For the same molecule, the “Cholesterol-free media + simvastatin (0.04 μM)” value [2, 22] was 1.711, the “Complete Media” value [2, 23] was 1.056 and the Difference [2, 6] was −0.65.
Molecule `CN(C)N(C)C(=O)[C@@]1(Cc2ccccc2)CCCN(C(=O)[C@@H](Cc2c[nH]c3ccccc23)NC(=O)C(C)(C)N)C1` [Anamorelin] has a Difference [1, 18] of −0.54, a Cholesterol-free [1, 19] of 1.02 and a Complete [1, 20] of 0.4827. The “Cholesterol-free media + simvastatin (0.04 μM)” value [2, 7] was 1.263, the “Complete Media” value [2, 8] was 1.358 and the Difference [2, 9] was 0.10.
`CCOC(=O)[C@H](CCc1ccccc1)N[C@H]1CCc2ccccc2N(CC(=O)O)C1=O` [Benazepril (hydrochloride)] showed a Cholesterol-free [1, 3] of 1.314, a Complete ([1]; NCI-H292 cells, complete media) of 0.8774 and a Difference [1, 4] of −0.44. For the same molecule, the “Cholesterol-free media + simvastatin (0.04 μM)” value [2, 13] was 1.077, the “Complete Media” value [2, 14] was 0.9854 and the Difference [2, 6] was −0.09.
Work on `Oc1ncnc2[nH]ncc12` [Allopurinol] yielded a Difference [1, 21] of −0.29, a Cholesterol-free [1, 3] of 1.198 and a Complete ([1]; NCI-H292 cells, complete media) of 0.9095. The “Cholesterol-free media + simvastatin (0.04 μM)” value [2, 7] was 0.8896, the “Complete Media” value [2, 8] was 0.9734 and the Difference [2, 9] was 0.08.
`COc1nccnc1NS(=O)(=O)c1ccc(N)cc1` [Sulfalene] gave a Difference [1, 21] of −0.03, a Cholesterol-free [1, 10] of 1.1 and a Complete [1, 11] of 1.067. The “Cholesterol-free media + simvastatin (0.04 μM)” value [2, 5] was 1.16, the “Complete Media” value ([2]; drug in complete media) was 0.9534 and the Difference [2, 6] was −0.21.
Molecule `C=C1[C@H](CO)[C@@H](O)C[C@@H]1n1cnc2c(=O)[nH]c(N)nc21` [Entecavir (monohydrate)] has a Difference [1, 18] of −0.52, a Cholesterol-free [1, 19] of 1.519 and a Complete [1, 20] of 1. The “Cholesterol-free media + simvastatin (0.04 μM)” value [2, 5] was 1.17, the “Complete Media” value ([2]; drug in complete media) was 0.9716 and the Difference [2, 6] was −0.20.
`OC(CCN1CCCCC1)(c1ccccc1)C1CCCCC1` (centres unmarked) [Trihexyphenidyl (hydrochloride)] was tested, and the Cholesterol-free [1, 3] was 1.407, the Complete ([1]; NCI-H292 cells, complete media) was 0.9676 and the Difference [1, 4] was −0.44. The “Cholesterol-free media + simvastatin (0.04 μM)” value [2, 5] was 0.9099, the “Complete Media” value ([2]; drug in complete media) was 0.6915 and the Difference [2, 6] was −0.22.
Work on `O=C(O)c1cccnc1Nc1cccc(C(F)(F)F)c1` [Niflumic acid] yielded a Cholesterol-free [1, 10] of 0.872, a Complete [1, 11] of 1.486 and a Difference [1, 12] of 0.61. For the same molecule, the “Cholesterol-free media + simvastatin (0.04 μM)” value [2, 22] was 0.9955, the “Complete Media” value [2, 23] was 0.2879 and the Difference [2, 6] was −0.71.
In the case of `C[C@H](CCC(=O)NCCS(=O)(=O)[O-])[C@H]1CC[C@H]2[C@@H]3[C@@H](O)C[C@@H]4C[C@H](O)CC[C@]4(C)[C@H]3CC[C@]12C.[Na+]` [Taurochenodeoxycholic acid (sodium salt)], the Difference [1, 24] was −0.22, the Cholesterol-free [1, 3] was 0.9501 and the Complete ([1]; NCI-H292 cells, complete media) was 0.7299. For the same molecule, the “Cholesterol-free media + simvastatin (0.04 μM)” value [2, 22] was 1.88, the “Complete Media” value [2, 23] was 1.535 and the Difference ([2]; complete media vs cholesterol-free media + simvastatin (0.04 μM), […]) was −0.35.
With `CCc1cc2c(cc1N1CCC(N3CCOCC3)CC1)C(C)(C)c1[nH]c3cc(C#N)ccc3c1C2=O` [Alectinib (Hydrochloride)] the Cholesterol-free [1, 10] was 0.7945, the Complete [1, 11] was 1.394 and the Difference [1, 12] was 0.60. The “Cholesterol-free media + simvastatin (0.04 μM)” value [2, 5] was 0.8676, the “Complete Media” value ([2]; drug in complete media) was 0.6682 and the Difference [2, 6] was −0.20.
For `Oc1c(I)cc(Cl)c2cccnc12` [Clioquinol], the Cholesterol-free [1, 10] was 0.6089, the Difference [1, 12] was 0.57 and the “Cholesterol-free media + simvastatin (0.04 μM)” value [2, 13] was 1.168. The “Complete Media” value [2, 14] was 1.009 and the Difference [2, 6] was −0.16.
`C[C@H]1COc2c(N3CCN(C)CC3)c(F)cc3c(=O)c(C(=O)O)cn1c23` [Levofloxacin] gave a Difference [1, 21] of −0.23, a Cholesterol-free [1, 3] of 1.162 and a Complete ([1]; NCI-H292 cells, complete media) of 0.933. For the same molecule, the “Cholesterol-free media + simvastatin (0.04 μM)” value [2, 5] was 1.136, the “Complete Media” value ([2]; drug in complete media) was 0.944 and the Difference [2, 6] was −0.19.
Work on `C#CCN(C)Cc1ccccc1` [Pargyline (hydrochloride)] yielded a Cholesterol-free [1, 3] of 1.204, a Complete ([1]; NCI-H292 cells, complete media) of 0.7875 and a Difference [1, 4] of −0.42. The “Cholesterol-free media + simvastatin (0.04 μM)” value [2, 25] was 0.8767, the “Complete Media” value [2, 26] was 0.8243 and the Difference ([2]; complete media minus cholesterol-free media + simvastatin (0.04 μM), >0 enhanced anti-cancer activity, about 0 neutral, <0 antagonist) was −0.05.
`CCCCCCCC/C=C\CCCCCCCC(=O)O` [Oleic acid] showed a Difference [1, 21] of −0.25, a Cholesterol-free [1, 3] of 1.214 and a Complete ([1]; NCI-H292 cells, complete media) of 0.9643. For the same molecule, the “Cholesterol-free media + simvastatin (0.04 μM)” value [2, 7] was 0.7267, the “Complete Media” value [2, 8] was 0.8301 and the Difference [2, 9] was 0.10.
For `COc1ccc2c(c1O)-c1c(OC)c(OC)cc3c1[C@H](C2)N(C)CC3` [Isocorydine], the Difference [1, 24] was −0.17, the Cholesterol-free [1, 16] was 1.162 and the Complete [1, 17] was 0.9961. For the same molecule, the “Cholesterol-free media + simvastatin (0.04 μM)” value [2, 25] was 1.273, the “Complete Media” value [2, 26] was 1.214 and the Difference ([2]; complete media minus cholesterol-free media + simvastatin (0.04 μM), […]) was −0.06.
For `CCC(=O)O[C@@H](O[P@](=O)(CCCCc1ccccc1)CC(=O)N1C[C@H](C2CCCCC2)C[C@H]1C(=O)O)C(C)C` [Fosinopril (sodium)], the Difference [1, 18] was −0.52, the Cholesterol-free [1, 19] was 1.831 and the Complete [1, 20] was 1.313. For the same molecule, the “Cholesterol-free media + simvastatin (0.04 μM)” value [2, 13] was 0.91, the “Complete Media” value [2, 14] was 1.199 and the Difference [2, 9] was 0.29.
